Experimental findings from US20230220416A1, “NOVEL TR[…] AND USES THEREOF” (priority 2020, published 2023) are described below.

The test system of one data set is target cell. The format is cell-based. The note with it: for suitability of approved therapeutic compounds as transduction enhancers (result in words): no concentration stated; for transduction efficiency of a target cell, single enhancer (result in words): Amphotericin B 0.5-1 μg/mL, Silibinin 1 to 5 μM, Midostaurin 100 to 400 nM, Nystatin 100 μM, Natamycin 3 μM, Everolimus 1 μM, deoxyribonucleosides 0.3-2.5 mM, PEG-PLA-PEG 10 μg/mL, PEG-PCL-PEG 10 μg/mL, Resveratrol 5 μM, Prostaglandin E2 10 μM, Poloxamer synperonic F108 0.5-2 mg/mL, DMSO 1% (v/v), protamine salts 4 μg/mL. An excerpt:
The efficiency of a transduction experiment may be determined as known in the art. Preferably, transduction efficiency may be measured by determining the vector copy number (VCN) in a single cell after a transduction experiment or by measuring the average VCN in a population of cells after a transduction experiment. “Vector copy number” or “VCN” refers to the number of copies of a vector, or portion thereof, in a cell's genome. The average VCN may be determined from a population of cells or from individual cell colonies. Exemplary methods for determining VCN include any form of polymerase chain reaction (PCR), such as qPCR or digital droplet PCR, and flow cytometry. […] 479-487 or as described in Examples 1 or 5.
Several transduction enhancers and combinations of transduction enhancers reported herein result in an increase in transduction efficiency. An “increase in transduction efficiency” refers to an increase in VCN upon transduction of a cell population by a gene therapy vector in presence of a transduction enhancer compared to the absence of a transduction enhancer.

The subject of another data set is human CD34-positive HSC. Kind of data set: Lentiviral SIN vector transduction of CD34-positive HSC at MOI 1, 3 or 5 in X-Vivo 20, VCN by qPCR (Example 1). The conditions noted are these: each with 4 μg/mL protamine sulfate, VCN with protamine sulfate only set as 1, 1 μg/mL Amphotericin B, 1 mg/ml Lentiboost.
Another data set relates to Human CD34+HSC. The data set can be described thus: Lentiviral SIN vector transduction of CD34+ HSC at MOI 20 with or without 1% DMSO, VCN. The data set is classed as cell-based. The note with it: 2 h pre-stimulation and 16 h incubation, X-Vivo 20, VCN without DMSO 0.915. The method, then:
Cells were transduced in the absence and presence of 1% DMSO.
The transduction process comprised a 2 h pre-stimulation period in presence of 1% DMSO, followed by 16 h incubation of pre-stimulated cells with the gene therapy vector with an MOI 20 in presence of 1% DMSO.

Setting [1] is: MOI of 1, 5 μM Silibinin, 5 μM Resveratrol, 1 μM Everolimus, 0,4 μM Midostaurin, 100 μM Nystatin, 3 μM Natamycin.

Excerpt for human CD34-positive HSC: This vector encodes human p47phox cDNA under control of the miR223 internal promoter. Cells were transduced in presence of protamine sulfate only (resulting VCN set to 100%), or in presence of protamine sulfate (PS) plus one or more compounds tested for transduction enhancer activity. After 10 to 12 days post transduction, DNA from transduced cells was isolated, and VCNs were quantified by qPCR. The increase in VCN relative to the VCN achieved upon transduction in presence of protamine sulfate only was expressed as “fold induction rel. to PS”.
Thawed cells from healthy donors were cultured in 96 well plates comprising X-Vivo 20 medium supplemented with 1% human serum albumin, 300 μg/ml stem cell factor (SCF), 300 μg/ml fins like tyrosine kinase 3 (FLT-3) ligand (Flt3-lig) and 100 μng/ml Thrombopoietin (TPO) at a density of 0.5 E6 cells/cm^2, and at a concentration of 1E6 cells/ml for 22h, optionally followed by 2h of pre-stimulation with below mentioned compounds. Afterwards, cells were incubated for transduction with the lentiviral SIN gene therapy vector for 12 h in presence of the compounds indicated below and protamine sulfate. After the 12 h transduction period, the medium was exchanged by above mentioned medium, and cells were transferred to 12-well plates in which they were cultured in a volume of 1 ml for 5 to 7 days depending on cell density. Thereafter, medium was exchanged by fresh medium, and cells were cultured in 2 ml for another 6 days. At day 12 post transduction, DNA was isolated, and vector copy number (VCN) was quantified by qPCR. All experiments were conducted in triplicates. For negative control, a triplicate of non-transduced cells was cultured as described. To determine the baseline of transduction efficacy in presence of only protamine sulfate, cells were incubated with MOI 1, MOI 3 or MOI 5 of the lentiviral SIN vector in presence of 4 μg/mL protamine sulfate.
After 10 to 12 days, non-integrated pro-viral DNA was diluted out due to the proliferation of cells in the plate and VCNs were quantified thereafter by qPCR. Every condition was tested in triplicates and the average of VCNs of triplicates for each individual condition was calculated. To evaluate the transduction enhancement activity of the tested compounds, average VCNs of cells transduced in the presence of protamine sulfate was set as 1, and enhancement of transduction was expressed as X-fold increase relative to transduction in the presence of protamine sulfate only.

On to `Nc1nc(F)nc2c1ncn2[C@@H]1O[C@H](CO)[C@@H](O)[C@@H]1O` [Fludarabine], for which the “suitability of approved therapeutic compounds as transduction enhancers (result in words)” value (from here on “suitability”) with target cell is listed as “efficient transduction enhancers”.

Consider `CCCCC[C@H](O)/C=C/[C@H]1[C@H](O)CC(=O)[C@@H]1C/C=C\CCCC(=O)O` [Prostaglandin E2], for which, in the data set with target cell, the “transduction efficiency of a target cell, single enhancer (result in words)” value (from here on “transduction efficiency of a target cell”) is reported as “enhances the transduction efficiency”.

Take `CO[C@H]1C[C@@H]2CC[C@@H](C)[C@@](O)(O2)C(=O)C(=O)N2CCCC[C@H]2C(=O)O[C@H]([C@H](C)C[C@@H]2CC[C@@H](OCCO)[C@H](OC)C2)CC(=O)[C@H](C)/C=C(\C)[C@@H](O)[C@@H](OC)C(=O)[C@H](C)C[C@H](C)/C=C/C=C/C=C/1C` [Everolimus]: the “transduction efficiency of a target cell” value in the data set with target cell is given as “enhances the transduction efficiency”. Moreover, the “increase in the efficiency of lentiviral transduction (VCN), fold induction rel. to PS” value (shortened to “increase … fold induction rel. to PS”) in the data set on human CD34-positive HSC (setting [1]) was “(factor 13.5) fold”; with human CD34-positive HSC (MOI of 3, 1 μM Everolimus) it was “(factor 2.5) fold”.

As to `CO[C@@H]1[C@H](N(C)C(=O)c2ccccc2)C[C@H]2O[C@]1(C)n1c3ccccc3c3c4c(c5c6ccccc6n2c5c31)C(=O)NC4` [Midostaurin], the “increase … fold induction rel. to PS” value in the data set with human CD34-positive HSC (setting [1]) is reported as “(factor 4.2) fold”.

Take `C[C@@H]1[C@H](O)[C@@H](C)/C=C/C=C/CC/C=C/C=C/C=C/C=C/C(O[C@H]2O[C@H](C)[C@@H](O)[C@H](N)[C@@H]2O)CC2O[C@](O)(CC(O)C(O)CCC(O)CC(O)CC(O)CC(=O)O[C@H]1C)CC(O)C2C(=O)O` (stereo partly shown) [Nystatin]: in the data set on target cell, the “transduction efficiency of a target cell” value is reported as “enhances the transduction efficiency” and the “suitability” value is recorded as “efficient transduction enhancers”. Besides, in the data set on human CD34-positive HSC (setting [1]), the “increase … fold induction rel. to PS” value was “(factor 2.6) fold”.

For `C[S+](C)[O-]` [DMSO, Dimethyl sulfoxide], the “vector copy number (VCN)” value in the data set on Human CD34+HSC came to 1.16. In the data set with target cell, the “transduction efficiency of a target cell” value is reported as “enhances the transduction efficiency”.

With `C[C@@H]1[C@H](O)[C@@H](C)/C=C/C=C/C=C/C=C/C=C/C=C/C=C/[C@H](O[C@@H]2O[C@H](C)[C@@H](O)[C@H](N)[C@@H]2O)C[C@@H]2O[C@](O)(C[C@@H](O)C[C@@H](O)[C@H](O)CC[C@@H](O)C[C@@H](O)CC(=O)O[C@H]1C)C[C@H](O)[C@H]2C(=O)O` [Amphotericin B], in the data set on target cell, the “transduction efficiency of a target cell” value was “enhances the transduction efficiency”. For the same molecule, the “suitability” value with target cell was “efficient transduction enhancers”. For the same molecule, the “increase … fold induction rel. to PS” value in the data set with human CD34-positive HSC (setting [1]) was “(factor 3) fold”; with human CD34-positive HSC (MOI of 3, 1 μM Everolimus) it was “(factor 2.2) fold”.

For the molecule “2,3-Dihydro-3-(4-hydroxy-3-methoxyphenyl)-2-(hydroxymethyl)-6-(3,5,7-trihydroxy-4-oxobenzopyran-2-yl)benzodioxin [Silibinin]”, in the data set on target cell, the “transduction efficiency of a target cell” value was “enhances the transduction efficiency” and the “suitability” value is listed as “efficient transduction enhancers”. The “increase … fold induction rel. to PS” value in the data set on human CD34-positive HSC (setting [1]) was “(factor 4.8) fold”.

For the molecule `C[C@@H]1C/C=C/C=C/C=C/C=C/[C@H](O[C@@H]2O[C@H](C)[C@@H](O)[C@H](N)[C@@H]2O)C[C@@H]2O[C@](O)(C[C@@H](O)C[C@H]3O[C@@H]3/C=C/C(=O)O1)C[C@H](O)[C@H]2C(=O)O` [Natamycin], the “suitability” value with target cell was “efficient transduction enhancers”.
